# Read-outs that look alike come from different tables or passages of the source.
# Legend:
# Format in all cases: cell-based
# K-562 = experiment: NCI in vitro cytotoxicity (SRB, 48 h), Leukemia panel; conditions: Homo sapiens, K562; K-562, Leukemia; 48 h exposure
# SK-MEL-28 = experiment: NCI in vitro cytotoxicity (SRB, 48 h), Melanoma panel; conditions: Homo sapiens; SK-MEL-28, Melanoma; 48 h exposure
# NCI-H460 = experiment: NCI in vitro cytotoxicity (SRB, 48 h), Non-small cell lung panel; conditions: Homo sapiens, 48 h exposure
# SF-539 = experiment: NCI in vitro cytotoxicity (SRB, 48 h), CNS panel; conditions: Homo sapiens; SF-539, CNS; 48 h exposure
# UACC-25 = experiment: NCI in vitro cytotoxicity (SRB, 48 h), Melanoma panel; conditions: Homo sapiens; UACC-25, Melanoma; 48 h exposure
# CAKI-1 = experiment: NCI in vitro cytotoxicity (SRB, 48 h), Renal panel; conditions: Homo sapiens; CAKI-1, Renal; 48 h exposure
# NCI-H226 = experiment: NCI in vitro cytotoxicity (SRB, 48 h), Non-small cell lung panel; conditions: Homo sapiens, 48 h exposure
# HOP-92 = experiment: as above; conditions: Homo sapiens; HOP-92, Non-small cell lung; 48 h exposure
# PC-3 = experiment: NCI in vitro cytotoxicity (SRB, 48 h), Prostate panel; conditions: Homo sapiens; PC-3, Prostate; 48 h exposure
# 786-0 = experiment: NCI in vitro cytotoxicity (SRB, 48 h), Renal panel; conditions: Homo sapiens; 786-0, Renal; 48 h exposure
# SW-620 = experiment: NCI in vitro cytotoxicity (SRB, 48 h), Colon panel; conditions: Homo sapiens; SW-620, Colon; 48 h exposure
# SK-MEL-2 = experiment: NCI in vitro cytotoxicity (SRB, 48 h), Melanoma panel; conditions: Homo sapiens; SK-MEL-2, Melanoma; 48 h exposure
# RPMI-8226 = experiment: NCI in vitro cytotoxicity (SRB, 48 h), Leukemia panel; conditions: Homo sapiens; RPMI-8226, Leukemia; 48 h exposure
# MALME-3M = experiment: NCI in vitro cytotoxicity (SRB, 48 h), Melanoma panel; conditions: Homo sapiens, 48 h exposure
# CNS cancer cell lines = experiment: NCI in vitro cytotoxicity, whole panel; conditions: Homo sapiens; for CC50: read-out: Log10 LC50 (converted)
# [1] = test system: Non-small-cell lung cancer cell lines; experiment: NCI in vitro cytotoxicity, whole panel; conditions: Homo sapiens; for CC50: read-out: Log10 LC50 (converted)
# EKVX = experiment: NCI in vitro cytotoxicity (SRB, 48 h), Non-small cell lung panel; conditions: Homo sapiens, 48 h exposure
# BT-549 = experiment: NCI in vitro cytotoxicity (SRB, 48 h), Breast panel; conditions: Homo sapiens; BT-549, Breast; 48 h exposure
# COLO 205 = experiment: NCI in vitro cytotoxicity (SRB, 48 h), Colon panel; conditions: Homo sapiens; COLO 205, Colon; 48 h exposure
# IGROV1 = experiment: NCI in vitro cytotoxicity (SRB, 48 h), Ovarian panel; conditions: Homo sapiens, IGROV-1; IGROV1, Ovarian; 48 h exposure
# RXF 393 = experiment: NCI in vitro cytotoxicity (SRB, 48 h), Renal panel; conditions: Homo sapiens; RXF 393, Renal; 48 h exposure
# DU-145 = experiment: NCI in vitro cytotoxicity (SRB, 48 h), Prostate panel; conditions: Homo sapiens; DU-145, Prostate; 48 h exposure
# UACC-62 = experiment: NCI in vitro cytotoxicity (SRB, 48 h), Melanoma panel; conditions: Homo sapiens; UACC-62, Melanoma; 48 h exposure
# ACHN = experiment: NCI in vitro cytotoxicity (SRB, 48 h), Renal panel; conditions: Homo sapiens, 48 h exposure
# NCI-H23 = experiment: NCI in vitro cytotoxicity (SRB, 48 h), Non-small cell lung panel; conditions: Homo sapiens, 48 h exposure
# HCT-15 = experiment: NCI in vitro cytotoxicity (SRB, 48 h), Colon panel; conditions: Homo sapiens; HCT-15, Colon; 48 h exposure
# SK-OV-3 = experiment: NCI in vitro cytotoxicity (SRB, 48 h), Ovarian panel; conditions: Homo sapiens; SK-OV-3, Ovarian; 48 h exposure
# [2] = test system: Ovarian cancer cell lines; experiment: NCI in vitro cytotoxicity, whole panel; conditions: Homo sapiens; for CC50: read-out: Log10 LC50 (converted)
# HOP-62 = experiment: NCI in vitro cytotoxicity (SRB, 48 h), Non-small cell lung panel; conditions: Homo sapiens; HOP-62, Non-small cell lung; 48 h exposure
# A498 = experiment: NCI in vitro cytotoxicity (SRB, 48 h), Renal panel; conditions: Homo sapiens, 48 h exposure
# [3] = test system: sixty human tumour cell lines; experiment: NCI in vitro cytotoxicity, all panels; conditions: for CC50: read-out: Log10 LC50 mean graph midpoint (MG_MID) (converted)
# MDA-MB-231/ATCC = experiment: NCI in vitro cytotoxicity (SRB, 48 h), Breast panel; conditions: Homo sapiens; for GI50: Breast, 48 h exposure; for IC50: Table 4, read-out: Comparative efficacy
# Method: (§1) The imidazothiazole-chalcone hybrids 7a, 7e, 7f, 8f and 19e have been tested against sixty human tumour cell lines derived from nine cancer types (leukemia, non-small cell lung cancer, colon cancer, CNS cancer, melanoma, ovarian cancer, renal cancer, prostate cancer and breast cancer) as per NCI protocol. For each compound, dose response curves for individual cell lines have been measured at a minimum of five concentrations at 10 fold dilutions. A protocol of 48 h continuous drug exposure has been used, and a sulforhodamine B (SRB) protein assay was used to estimate cell viability or growth. The concentration for 50% cell growth inhibition (GI50), total cell growth inhibition (TGI, 0% growth) and 50% cell death (LC50, […]) compared with the control has been calculated (Table-1).
# MCF7 = experiment: as above; conditions: Homo sapiens; for IC50: MCF7, MCF-7, Table 4, read-out: Comparative efficacy; for GI50: MCF7, Breast, 48 h exposure
# Method: as §1
# OVCAR-5 = experiment: NCI in vitro cytotoxicity (SRB, 48 h), Ovarian panel; conditions: Homo sapiens; OVCAR-5, Ovarian; 48 h exposure
# [4] = CNS cell, exposure period of at least 48 hrs, read-out: GI50, range over CNS cell lines
# [5] = CNS, average of six to eight cell lines, read-out: Log10 GI50 (converted)
# [6] = CNS, average of six to eight cell lines
# [7] = Non-small-cell lung, average of six to eight cell lines, read-out: Log10 GI50 (converted)
# [8] = Non-small-cell lung, average of six to eight cell lines
# [9] = exposure period of at least 48 hrs, read-out: GI50, range over lung cell lines
# [10] = Ovarian, average of six to eight cell lines, read-out: Log10 GI50 (converted)
# [11] = Ovarian, average of six to eight cell lines
# [12] = exposure period of at least 48 hrs, read-out: GI50, range over ovarian cell lines
# [13] = Homo sapiens, sixty cell lines, nine panels, read-out: GI50 against sixty cell lines in nine cell panels
# [14] = human tumour cell lines, read-out: Log10 GI50 mean graph midpoint (MG_MID) (converted)
smiles,measurement,setting,value
"COc1cc(C(=O)/C=C/c2c(C(F)(F)F)nc3sccn23)cc(OC)c1OC [Compound 7f, (E)-3-(6-(trifluoromethyl)imidazo[2,1-b]thiazol-5-yl)-1-(3,4,5-trimethoxyphenyl)prop-2-en-1-one]",GI50,K-562,1740 nM
same,GI50,SK-MEL-28,1690 nM
same,GI50,NCI-H460,1650 nM
same,GI50,SF-539,1550 nM
same,GI50,UACC-25,1900 nM
same,GI50,CAKI-1,1760 nM
same,GI50,NCI-H226,2170 nM
same,GI50,HOP-92,7000 nM
same,GI50,PC-3,2660 nM
same,GI50,786-0,1760 nM
same,GI50,SW-620,1670 nM
same,GI50,SK-MEL-2,2260 nM
same,GI50,RPMI-8226,1080 nM
same,GI50,MALME-3M,1590 nM
same,GI50,CNS cancer cell lines; [4],1380 to 2670 nM
same,GI50,CNS cancer cell lines; [5],1910 nM
same,CC50,CNS cancer cell lines; [6],12600 nM
same,GI50,[1]; [7],2450 nM
same,CC50,[1]; [8],26900 nM
same,GI50,[1]; [9],1650 to 7000 nM
same,GI50,EKVX,2720 nM
same,GI50,BT-549,2260 nM
same,GI50,COLO 205,1940 nM
same,GI50,IGROV1,2660 nM
same,GI50,RXF 393,2020 nM
same,GI50,DU-145,1410 nM
same,GI50,UACC-62,1520 nM
same,GI50,ACHN,1820 nM
same,GI50,NCI-H23,1720 nM
same,GI50,HCT-15,1800 nM
same,GI50,SK-OV-3,2870 nM
same,GI50,[2]; [10],2690 nM
same,CC50,[2]; [11],57500 nM
same,GI50,[2]; [12],1860 to 3080 nM
same,GI50,HOP-62,1930 nM
same,GI50,A498,1890 nM
same,GI50,[3]; [13],< 9000 nM
same,Log10 TGI mean graph midpoint (MG_MID),[3]; human tumour cell lines,−5.28
same,"in vitro cytotoxicity, in words",[3]; human tumour cell lines,significant cytotoxicity
same,GI50,[3]; [14],1910 nM
same,CC50,[3]; human tumour cell lines,19100 nM
same,GI50,MDA-MB-231/ATCC,2920 nM
same,IC50,MDA-MB-231/ATCC,2920 nM
same,IC50,MCF7,1250 nM
same,GI50,MCF7,1250 nM
"COc1ccc(C(=O)/C=C/c2c(C(F)(F)F)nc3sccn23)cc1OC [Compound 8f, (E)-1-(3,4-dimethoxyphenyl)-3-(6-(trifluoromethyl)imidazo[2,1-b]thiazol-5-yl) prop-2-en-1-one]",GI50,OVCAR-5,4180 nM
same,GI50,K-562,2250 nM
same,GI50,SK-MEL-28,8480 nM
same,GI50,NCI-H460,1940 nM
same,GI50,SF-539,2360 nM
same,GI50,UACC-25,7770 nM
same,GI50,CAKI-1,2460 nM
same,GI50,NCI-H226,6950 nM
same,GI50,HOP-92,5800 nM
same,GI50,PC-3,5390 nM
same,GI50,786-0,5670 nM
same,GI50,SW-620,1490 nM
same,GI50,SK-MEL-2,4080 nM
same,GI50,RPMI-8226,1620 nM
same,GI50,MALME-3M,5920 nM
same,GI50,CNS cancer cell lines; [4],1870 to 6870 nM
same,GI50,CNS cancer cell lines; [5],3390 nM
same,CC50,CNS cancer cell lines; [6],≥ 100000 nM
same,GI50,[1]; [7],3980 nM
same,CC50,[1]; [8],≥ 100000 nM
same,GI50,[1]; [9],1940 to 6950 nM
same,GI50,EKVX,4430 nM
same,GI50,BT-549,3250 nM
same,GI50,COLO 205,4560 nM
same,GI50,IGROV1,3150 nM
same,GI50,RXF 393,2510 nM
same,GI50,DU-145,1640 nM
same,GI50,UACC-62,4850 nM
same,GI50,ACHN,5100 nM
same,GI50,NCI-H23,2780 nM
same,GI50,HCT-15,2540 nM
same,GI50,SK-OV-3,3410 nM
same,GI50,[2]; [10],2950 nM
same,CC50,[2]; [11],100000 nM
same,GI50,[2]; [12],1880 to 4180 nM
same,GI50,HOP-62,6000 nM
same,GI50,A498,7580 nM
same,GI50,[3]; [13],< 9000 nM
same,Log10 TGI mean graph midpoint (MG_MID),[3]; human tumour cell lines,−4.22
same,"in vitro cytotoxicity, in words",[3]; human tumour cell lines,significant cytotoxicity
same,GI50,[3]; [14],3090 nM
same,CC50,[3]; human tumour cell lines,100000 nM
same,GI50,MDA-MB-231/ATCC,5910 nM
same,IC50,MDA-MB-231/ATCC,760 nM
same,IC50,MCF7,760 nM
same,GI50,MCF7,760 nM

# Source: patent US8916711B2, “Imidazothiazole-chalcone derivatives as potential anticancer agents and process for the preparation thereof” (Council of Scientific and Industrial Research, priority 2009, dated 2014)
